We go through 1 compound from patent US8324267B2, “Kinase inhibitors and the use thereof” (Forschungzentrum Karlsruhe GmbH, priority 2001, dated 2012).

This assay relates to MT450 rat mammary carcinoma cells. Kind of assay: Growth of subcutaneous MT450 mammary carcinomas in Wistar Furth rats. The assay is classed as in vivo. The note with it: MT450 cells s.c., 8 mg/kg/day intraperitoneally in DMSO, FIG. 8. The procedure:
MT450 rat mammary carcinoma cells were injected subcutaneously into Wistar Furth rats. Treatment with the active substance MAZ51 at 8 mg/kg/day in 100% DMSO or solvent control (100% DMSO) was started the day after injection of the tumor cells. MAZ51 or only solvent was injected intraperitoneally each day. Each test group comprised 8 animals. The tumors were measured every 4-5 days.
FIG. 8: Depiction of the tumor volume as a function of the number of days after tumor cell injection depending on treatment of the MT450 tumor cells with MAZ51 and a DMSO solution (negative control).

Turning to `CN(C)c1ccc(C=C2C(=O)Nc3ccccc32)c2ccccc12` [MAZ51, 3-(4-Dimethylaminonaphthalen-1-ylmethylene)-1,3-dihydroindol-2-one], the “inhibition of tumor growth (tumor volume)” value is “inhibited in vivo”.
